Experiments:
CYPRO = experiment: In-water applied, transplanted paddy rice weeds (Example II); assay type: in vivo, Cyperus rotundus L.
Experimental: Weed seeds or nutlets of the desired test plant species were planted in puddled soil (mud) prepared by mixing a shredded, non-sterilized mineral soil (50.5 percent silt, 25.5 percent clay, and 24 percent sand, with a pH of about 7.6 and an organic matter content of about 2.9 percent) and water at a 1:1 volumetric ratio. The prepared mud was dispensed in 365 mL aliquots into 16-ounce (oz.) non-perforated plastic pots with a surface area of 86.59 square centimeters (cm^2) leaving a headspace of 3 centimeters (cm) in each pot. Mud was allowed to dry overnight prior to planting or transplanting. Rice seeds were planted in Sun Gro MetroMix® 306 planting mixture, which typically has a pH of about 6.0 to about 6.8 and an organic matter content of about 30 percent, in plastic plug trays. Seedlings at the second or third leaf stage of growth were transplanted into 860 mL of mud contained in 32-oz. non-perforated plastic pots with a surface area of 86.59 cm^2 4 days prior to herbicide application. The paddy was created by filling the headspace of the pots with 2.5 to 3 cm of water. When required to ensure good germination and healthy plants, a fungicide treatment and/or other chemical or physical treatment was applied. The plants were grown for 4-22 days in a greenhouse with an approximate 14 h photoperiod which was maintained at about 29° C. during the day and about 26° C. during the night. Nutrients were added as Osmocote® (19:6:12, N:P:K+minor nutrients) at 2 g per 16-oz. pot and 4 g per 32-oz. pot. […]
Treatment requirements for each compound or herbicidal component were calculated based upon the rates being tested, the concentration of active ingredient or acid equivalent in the formulation, an application volume of 2 mL per component per pot, and an application area of 86.59 cm^2 per pot.
For formulated compounds, a measured amount was placed in an individual 100 or 200 mL glass vial and was dissolved in a volume of 1.25% (v/v) Agri-Dex® crop oil concentrate to obtain application solutions. […]

CIRAR = experiment: Postemergence herbicidal activity in cereal crops, greenhouse (Example V); assay type: in vivo, Cirsium arvense (L.) Scop.
Experimental: (§1) Seeds of the desired test plant species were planted in Sun Gro MetroMix® 306 planting mixture, which typically has a pH of 6.0 to 6.8 and an organic matter content of about 30 percent, in plastic pots with a surface area of 103.2 square centimeters (cm^2). When required to ensure good germination and healthy plants, a fungicide treatment and/or other chemical or physical treatment was applied. The plants were grown for 7-36 days in a greenhouse with an approximate 14 hour photoperiod which was maintained at about 18° C. during the day and about 17° C. during the night. Nutrients and water were added on a regular basis and supplemental lighting was provided with overhead metal halide 1000-Watt lamps as necessary. The plants were employed for testing when they reached the second or third true leaf stage.
(§2) Treatments consisted of the benzyl ester of 4-amino-3-chloro-5-fluoro-6-(4-chloro-2-fluoro-3-methoxy-phenyl)pyridine-2-carboxylic acid (Compound A), formulated as an SC, a second cereal herbicide alone and then both in combination.
(§3) Other herbicidal components were applied on an acid equivalent basis and include acetolactate synthase (ALS)-inhibiting herbicides (imidazolinone chemical class) imazamethabenz-methyl formulated as Assert®. Spray solutions of the second cereal herbicide and experimental compound mixtures were prepared by adding the stock solutions to the appropriate amount of dilution solution to form 12 mL spray solution with active ingredients in two- and three-way combinations. […]
(§4) The treated plants and control plants were placed in a greenhouse as described above and watered by sub-irrigation to prevent wash-off of the test compounds. After 20-22 days, the condition of the test plants as compared with that of the control plants was determined visually and scored on a scale of 0 to 100 percent where 0 corresponds to no injury and 100 corresponds to complete kill. […]

CHEAL = experiment: as above; assay type: in vivo, Chenopodium album L.
Experimental: as §1, §2, §3, §4

VERPE = experiment: as above; assay type: in vivo, Veronica persica Poir.
Experimental: as §1, §2, §3, §4

PAPRH = experiment: as above; assay type: in vivo, Papaver rhoeas L.
Experimental: as §1, §2, §3, §4

SASKR = experiment: as above; assay type: in vivo, Salsola iberica L.
Experimental: as §1, §2, §3, §4

SINAR = experiment: as above; assay type: in vivo, Sinapis arvensis L.
Experimental: as §1, §2, §3, §4

[1] = Compound A Benzyl Ester 2 gae/ha
[2] = Compound A Benzyl Ester 4 gae/ha

Structure (SMILES)	Visual Weed Control (%) - 22 DAA CYPRO Obs (CYPRO; Compound A Acid 10.6 gae/ha) [%]	Visual Weed Control (%) - 22 DAA CYPRO Obs (CYPRO; Compound A Acid 21.2 gae/ha) [%]	Visual Weed Control (%) - 21 DAA CIRAR Obs (CIRAR; [1]) [%]	Visual Weed Control (%) - 21 DAA CIRAR Obs (CIRAR; [2]) [%]	Visual Weed Control (%) - 21 DAA CHEAL Obs (CHEAL; [1]) [%]	Visual Weed Control (%) - 21 DAA CHEAL Obs (CHEAL; [2]) [%]	Visual Weed Control (%) - 21 DAA VERPE Obs (VERPE; [1]) [%]	Visual Weed Control (%) - 21 DAA VERPE Obs (VERPE; [2]) [%]	Visual Weed Control (%) - 21 DAA PAPRH Obs (PAPRH; [1]) [%]	Visual Weed Control (%) - 21 DAA PAPRH Obs (PAPRH; [2]) [%]	Visual Weed Control (%) - 21 DAA SASKR Obs (SASKR; [1]) [%]	Visual Weed Control (%) - 21 DAA SASKR Obs (SASKR; [2]) [%]	Visual Weed Control (%) - 21 DAA SINAR Obs (SINAR; [1]) [%]	Visual Weed Control (%) - 21 DAA SINAR Obs (SINAR; [2]) [%]
COc1c(Cl)ccc(-c2nc(C(=O)O)c(Cl)c(N)c2F)c1F [Compound A Acid, 4-amino-3-chloro-6-(4-chloro-2-fluoro-3-methoxyphenyl)-5-fluoropyridine-2-carboxylic acid]	0	40	–	–	–	–	–	–	–	–	–	–	–	–
COc1c(Cl)ccc(-c2nc(C(=O)OCc3ccccc3)c(Cl)c(N)c2F)c1F [Compound A Benzyl Ester, benzyl ester of 4-amino-3-chloro-5-fluoro-6-(4-chloro-2-fluoro-3-methoxy-phenyl)pyridine-2-carboxylic acid]	–	–	10	20	50	60	0	5	20	70	10	60	60	70

— patent US8906826B2, “Herbicidal compositions comprising 4-amino-3-chloro-5-fluoro-6-(4-chloro-2-fluoro-3-methoxyphenyl) pyridine-2-carboxylic acid or a derivative thereof and imidazolinones” (Dow AgroSciences, LLC, priority 2012, dated 2014)
